Non-standard residues stand in square brackets, D forms with d. No end group written: not given here. Cys∗ = not defined here
Columns and labels:
Type in all cases: binding, human
[1] = tested on: Antibodies to HIV-2; assay: EIA of dilutional series of HIV-2 positive sera
Method: Alternative methods of testing immunologic cross-reactivity were also used. In one such method L5 Peptides 39 and 39GC were tested by ELISA as previously described in U.S. Pat. No. 4,629,783. Briefly, stock solutions of peptides 39 and 39-GC were prepared in 6M Gu-HCl. Working dilutions of 20 µg/ml and 6 μg/ml respectively were prepared by dilution of stock solution 0 with 0.05M carbonate/bicarbonate buffer, pH 9.5. Wells of microtiter plates were filled with 100 μl of the working dilution of the peptides and allowed to stand overnight at room temperature. Coating solution was removed and 300 μl of blocking solution supra containing 0.5M ethanolamine was added for 1 hr. at room temperature. Blocking solution was removed and the plates were used immediately or allowed to dry and stored for later use.
Plasma samples were diluted (See Table 1) in sample dilution buffer (above) and 100 μl was added to individual wells. Samples were incubated for 30 min. at 37° C., then removed and the wells were washed six times with 0.15M NaCl, 0.05% Tween 20. One hundred microliters of goat antihuman Ig-horseradish peroxidase conjugate diluted in citrate buffer, pH 7.0, 1% normal goat serum was added to each well for 30 min at 37° C. prior to washing six times as above. The ELISA assay was developed by adding 100 μl/well of substrate solution (80 μg/ml tetramethyl benzidine, 0.0015% hydrogen peroxide in citrate/phosphate buffer, pH 6.0) for 30 min. at room temperature. Reactions were stopped with the addition of 100 μl of H2SO4 per well, and the ratio of the optical density at 450 nm to 630 nm was determined by an automated ELISA reader. The cutoff value for a positive result was set at 0.225 Absorbance Units above the average absorbance obtained for three known negative samples.
The immunoreactivity of HIV-2 peptides synthesized with protected cysteine thiol groups was determined. […] EIAs were performed as described above using viral lysates of HIV-1 and HIV-2 and peptides 39GC (HIV-1) and 41-2-3GC. Reactivity was determined for dilutions of two HIV-2 positive sera, F504282, obtained from a patient in New York, and “GOM,” provided by the Institut Pasteur.
The assays were EIAs performed generally as described above with varying dilutions of HIV-2 positive serum specimens.

[2] = tested on: antibodies to HTLV-I and/or HTLV-II; assay: membrane concentration immunoassay with peptide 121-1GC1 on suspected HTLV-I/II sera; conditions: for Reactivity with deprotected peptide (color grade): 80 μg peptide/5 mg bead/550 μl
Method: Serum or plasma samples (40 μl) were diluted 1:10 in dilution buffer (10% heat inactivated normal goat serum, 1% dextran sulfate, 0.2% Tween 20, 2.5% nonfat dry milk, 15 ppm Kathon CG, 0.005% antifoam A, in 20 mM sodium citrate buffer, pH 7.4). Diluted specimen was added to the surface of the membrane and allowed to absorb completely. After waiting 2 min. from the time of specimen addition, 1 ml of wash buffer (0.01M Tris-buffered saline, pH 6.0, 0.05M NaCl, 0.005M MgCl2, 0.1% sodium azide, 10 μg/ml nitro blue tetrazolium, 0.5M potassium thiocyanate) was added and allowed to completely absorb through the membrane. About 0.150 ml (3 drops) of goat anti-human Ig-alkaline phosphatase conjugate diluted in 10 mM phosphate buffered saline, pH 7.4, 0.2% goat gamma globulin, 1% bovine serum albumin, 1 mM MgCl2, 0.1 mM ZnCl2 was added to the membrane and allowed to absorb completely. The membrane was washed twice as above (2 ml) and about 0.150 ml (3 drops) of substrate (1M 2-amino-2-methyl-1-propanol, pH 10.3, 5 mg/ml 3-indoxyl phosphate) was added and allowed to absorb completely. After about 5 min. about 1 ml of 0.5M EDTA, pH 7.4, was passed through the membrane to stop the reaction. After the stop solution was completely absorbed the units were read visually or semi-quantitatively by reflectance.
A wide variety of positive, negative, EIA positive/western blot a typical and immune sensitized specimens have been tested with the preferred peptide 39 analog, peptide 39-GC, as the test antigen.
Results of assays with peptide 121-1GC1 were compared to those obtained with other HTLV-I/II tests, such as the polymerase chain reaction (PCR), radioimmunoprecipitation (RIP), Western blot (WB), and viral lysate EIAS. The procedure as described in Example II was used for peptide 121-1GC1, except that two drops of samples were used and the conjugate was used at a two-fold higher concentration. The assays were performed with 10 serum samples suspected of containing antibodies to HTLV-I and/or HTLV-II. The PCR assay for HTLV-II was performed generally according to PCR Technology, Principles and Applications for DNA Amplification, ed. H. A. Ehrlich, Stockton Press, N.Y. (1989), incorporated herein by reference.
In other experiments, screening of the HTLV-I peptide in a variety of forms against a serum panel of suspected HTLV-I/II positive individuals yielded inconclusive results when compared to results obtained by RIP, Western blot, and commercially available HTLV-I EIA assays.

[3] = tested on: Antibodies to HTLV-I; assay: HTLV-I peptides on latex microparticles tested for reactivity with control sera; conditions: Serum Sample 40359, HTLV-I EIA positive control, undiluted; 50 μg peptide/5 mg beads/550 μl

Cys-Gly-Gly-Gln-Asp-Gln-Ala-Arg-Leu-Asn-Ser-Trp-Gly-Cys*-Ala-Phe-Arg-Gln-Val-Cys*-NH2 [Peptide 41-2-3GC]
Reactivity in EIA ([1]; HIV-2 positive serum F504282 (A), 1:5): 3.000
Reactivity in EIA ([1]; HIV-2 positive serum F504282 (A), 1:10): 3.000
Reactivity in EIA ([1]; HIV-2 positive serum F504282 (A), 1:20): 3.000
Reactivity in EIA ([1]; HIV-2 positive serum F504282 (A), 1:40): 2.828
Reactivity in EIA ([1]; HIV-2 positive serum F504282 (A), 1:80): 2.107
Reactivity in EIA ([1]; HIV-2 positive serum F504282 (A), 1:160): 1.441
Reactivity in EIA ([1]; HIV-2 positive serum F504282 (A), 1:320): 0.941
Reactivity in EIA ([1]; HIV-2 positive serum F504282 (A), 1:640): 0.588
Reactivity in EIA ([1]; HIV-2 positive serum F504282 (A), 1:1280): 0.302
Reactivity in EIA ([1]; HIV-2 positive serum F504282 (A), 1:2560): 0.180
Reactivity in EIA ([1]; HIV-2 positive serum F504282 (A), Neat): 3.000
Reactivity in EIA ([1]; HIV-2 positive serum GOM (B), 1:2): 3.000
Reactivity in EIA ([1]; HIV-2 positive serum GOM (B), 1:4): 3.000
Reactivity in EIA ([1]; HIV-2 positive serum GOM (B), 1:8): 3.000
Reactivity in EIA ([1]; HIV-2 positive serum GOM (B), 1:16): 3.000
Reactivity in EIA ([1]; HIV-2 positive serum GOM (B), 1:32): 3.000
Reactivity in EIA ([1]; HIV-2 positive serum GOM (B), 1:64): 2.524
Reactivity in EIA ([1]; HIV-2 positive serum GOM (B), 1:128): 2.202
Reactivity in EIA ([1]; HIV-2 positive serum GOM (B), 1:256): 1.452
Reactivity in EIA ([1]; HIV-2 positive serum GOM (B), 1:512): 0.811
Reactivity in EIA ([1]; HIV-2 positive serum GOM (B), 1:1024): 0.571
Reactivity in EIA ([1]; HIV-2 serum PIN, 1:2): 3.000
Reactivity in EIA ([1]; HIV-2 serum PIN, 1:4): 3.000
Reactivity in EIA ([1]; HIV-2 serum PIN, 1:8): 2.596
Reactivity in EIA ([1]; HIV-2 serum PIN, 1:16): 1.940
Reactivity in EIA ([1]; HIV-2 serum PIN, 1:32): 1.209
Reactivity in EIA ([1]; HIV-2 serum PIN, 1:64): 0.582
Reactivity in EIA ([1]; HIV-2 serum PIN, 1:128): 0.368
Reactivity in EIA ([1]; HIV-2 serum PIN, 1:256): 0.186
Reactivity in EIA ([1]; HIV-2 serum S, 1:2): 3.000
Reactivity in EIA ([1]; HIV-2 serum S, 1:4): 3.000
Reactivity in EIA ([1]; HIV-2 serum S, 1:8): 3.000
Reactivity in EIA ([1]; HIV-2 serum S, 1:16): 3.000
Reactivity in EIA ([1]; HIV-2 serum S, 1:32): 2.632
Reactivity in EIA ([1]; HIV-2 serum S, 1:64): 2.155
Reactivity in EIA ([1]; HIV-2 serum S, 1:128): 1.442
Reactivity in EIA ([1]; HIV-2 serum S, 1:256): 0.725
Reactivity in EIA ([1]; HIV-2 serum S, 1:512): 0.516
Reactivity in EIA ([1]; HIV-2 serum SAMB, 1:2): 3.000
Reactivity in EIA ([1]; HIV-2 serum SAMB, 1:4): 3.000
Reactivity in EIA ([1]; HIV-2 serum SAMB, 1:8): 2.854
Reactivity in EIA ([1]; HIV-2 serum SAMB, 1:16): 2.710
Reactivity in EIA ([1]; HIV-2 serum SAMB, 1:32): 2.112
Reactivity in EIA ([1]; HIV-2 serum SAMB, 1:64): 1.400
Reactivity in EIA ([1]; HIV-2 serum SAMB, 1:128): 0.834
Reactivity in EIA ([1]; HIV-2 serum SAMB, 1:256): 0.404

H-CGG-QNRRGLDLLFWEQGGLC*KALQEQC*-NH2 (chain 1 H-CGGQNRRGLDLLFWEQGGLC; chain 2 KALQEQC-NH2; not fully specified; cysteine pairing not given here) [Peptide 121-1GC1]
Reactivity with deprotected peptide (color grade) ([2]; Sample No. 39266): trace
Reactivity with deprotected peptide (color grade) ([2]; Sample No. 89232): trace
Reactivity with deprotected peptide (color grade) ([2]; Sample No. 89379): trace
Reactivity with deprotected peptide (color grade) ([2]; Sample No. 89430): trace
Reactivity with deprotected peptide (color grade) ([2]; Sample No. 89442): trace
result on serum panel of suspected HTLV-I/II positive individuals ([2]; compared with RIP, Western blot and commercial HTLV-I EIA): Some samples which were purportedly positive by certain of the tests were negative

H-QNRRGLDLLFWEQGGLC*KALQEQC*-NH2 (chain 1 H-QNRRGLDLLFWEQGGL[Cys∗]; chain 2 KALQEQ[Cys∗]-NH2; not fully specified; reading uncertain; also: modified residues) [Peptide 121-1G1]
Reactivity to Antibodies to HTLV-I (color grade) [3]: trace
